Read-outs that look alike come from different tables or passages of the source.
Tests used:
thrombin [1] = molecular target: T1, thrombin (Bos taurus, UniProt P00735); assay: biochemical
plasmin = plasmin (Homo sapiens, UniProt P00747); assay: inhibition of plasmin, dissociation constant Ki
factor Xa = factor Xa (Bos taurus, UniProt P00743); assay: inhibition of factor Xa, dissociation constant Ki; format: biochemical; settings: Table 1
Description: (§1) The biological activity of the compounds of the present invention was determined in vitro as well as in vivo.

tPA = tPA (Homo sapiens, UniProt P00750); assay: inhibition of tPA, dissociation constant Ki
Sequence of tPA (P00750 36-562): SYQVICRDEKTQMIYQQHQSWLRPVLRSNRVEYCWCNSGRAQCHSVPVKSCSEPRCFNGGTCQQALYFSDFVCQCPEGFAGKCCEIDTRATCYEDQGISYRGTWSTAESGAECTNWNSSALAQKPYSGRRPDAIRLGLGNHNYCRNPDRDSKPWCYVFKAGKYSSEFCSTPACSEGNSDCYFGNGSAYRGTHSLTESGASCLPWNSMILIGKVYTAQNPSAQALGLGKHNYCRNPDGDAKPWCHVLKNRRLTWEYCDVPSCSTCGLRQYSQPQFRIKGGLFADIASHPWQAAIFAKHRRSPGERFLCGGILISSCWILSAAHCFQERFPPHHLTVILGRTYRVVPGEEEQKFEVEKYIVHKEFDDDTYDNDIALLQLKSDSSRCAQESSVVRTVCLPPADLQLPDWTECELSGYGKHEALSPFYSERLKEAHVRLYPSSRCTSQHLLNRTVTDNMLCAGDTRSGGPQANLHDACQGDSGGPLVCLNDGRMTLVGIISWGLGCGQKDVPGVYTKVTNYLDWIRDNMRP

glandular kallikrein = glandular kallikrein (Sus scrofa, UniProt P00752); assay: inhibition of glandular kallikrein, dissociation constant Ki
Sequence of glandular kallikrein (P00752 8-246): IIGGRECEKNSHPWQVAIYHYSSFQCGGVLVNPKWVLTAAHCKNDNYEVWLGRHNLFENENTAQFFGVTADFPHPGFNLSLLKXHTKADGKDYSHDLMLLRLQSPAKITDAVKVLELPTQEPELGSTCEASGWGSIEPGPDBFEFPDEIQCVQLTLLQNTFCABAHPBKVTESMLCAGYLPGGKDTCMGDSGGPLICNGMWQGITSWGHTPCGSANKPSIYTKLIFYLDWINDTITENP

trypsin = molecular target: T2, trypsin (Bos taurus, UniProt P00760); assay: inhibition of trypsin, dissociation constant Ki; format: biochemical; set-up: thrombin and the related enzymes trypsin, plasmin, factor Xa, factor XIIa; settings: Table 1; read-out: Ki, Trypsin
T2 sequence (P00760 24-246): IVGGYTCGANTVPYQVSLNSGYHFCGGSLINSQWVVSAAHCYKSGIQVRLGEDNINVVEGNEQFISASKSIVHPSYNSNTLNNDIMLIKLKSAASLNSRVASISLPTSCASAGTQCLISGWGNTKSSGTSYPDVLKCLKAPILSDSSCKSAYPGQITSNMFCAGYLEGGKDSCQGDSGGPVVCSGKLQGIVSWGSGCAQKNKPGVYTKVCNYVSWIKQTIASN
Description: as §1

factor XIIa = molecular target: T3, factor XIIa (Homo sapiens, UniProt P00748); assay: inhibition of factor XIIa, dissociation constant Ki
T3 sequence (P00748 373-615 limits assumed): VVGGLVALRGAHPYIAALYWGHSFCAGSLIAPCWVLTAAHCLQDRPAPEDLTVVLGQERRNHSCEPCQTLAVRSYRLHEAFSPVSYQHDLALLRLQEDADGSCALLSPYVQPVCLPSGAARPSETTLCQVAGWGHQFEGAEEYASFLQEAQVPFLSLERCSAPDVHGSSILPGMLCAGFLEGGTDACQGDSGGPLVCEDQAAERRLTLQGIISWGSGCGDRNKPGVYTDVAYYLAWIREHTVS

plasma kallikrein = plasma kallikrein (Homo sapiens, UniProt P03952); assay: inhibition of plasma kallikrein, dissociation constant Ki
Sequence of plasma kallikrein (P03952 391-638 limits assumed, species assumed): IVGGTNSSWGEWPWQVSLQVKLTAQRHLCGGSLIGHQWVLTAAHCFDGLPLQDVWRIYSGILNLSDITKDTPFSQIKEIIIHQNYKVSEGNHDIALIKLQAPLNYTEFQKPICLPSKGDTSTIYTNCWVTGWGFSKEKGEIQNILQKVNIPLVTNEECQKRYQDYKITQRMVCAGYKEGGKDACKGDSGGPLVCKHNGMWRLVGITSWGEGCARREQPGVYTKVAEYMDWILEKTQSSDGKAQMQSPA
Sequence of plasma kallikrein (P03952 20-390 partner limits assumed, species assumed): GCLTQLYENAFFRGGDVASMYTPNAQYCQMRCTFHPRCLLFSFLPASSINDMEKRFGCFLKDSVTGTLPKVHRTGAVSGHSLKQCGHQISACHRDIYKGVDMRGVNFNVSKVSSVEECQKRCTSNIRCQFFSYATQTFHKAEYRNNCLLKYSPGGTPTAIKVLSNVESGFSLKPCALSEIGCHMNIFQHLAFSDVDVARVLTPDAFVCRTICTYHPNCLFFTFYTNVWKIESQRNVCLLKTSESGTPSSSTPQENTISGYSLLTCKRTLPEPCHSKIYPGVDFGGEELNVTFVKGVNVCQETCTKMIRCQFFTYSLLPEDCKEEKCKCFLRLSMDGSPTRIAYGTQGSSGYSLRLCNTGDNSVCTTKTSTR

thrombin [2] = molecular target: T1, thrombin; settings: read-out: Ki, Thrombin

Sequence of plasmin (P00747 581-810 limits assumed): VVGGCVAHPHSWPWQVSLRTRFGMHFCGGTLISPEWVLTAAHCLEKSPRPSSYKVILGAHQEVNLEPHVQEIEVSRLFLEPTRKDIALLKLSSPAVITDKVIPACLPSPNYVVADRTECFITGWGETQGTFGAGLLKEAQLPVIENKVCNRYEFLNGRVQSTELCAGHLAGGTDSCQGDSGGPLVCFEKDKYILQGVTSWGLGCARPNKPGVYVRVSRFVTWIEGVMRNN
Sequence of plasmin (P00747 97-580 partner limits assumed): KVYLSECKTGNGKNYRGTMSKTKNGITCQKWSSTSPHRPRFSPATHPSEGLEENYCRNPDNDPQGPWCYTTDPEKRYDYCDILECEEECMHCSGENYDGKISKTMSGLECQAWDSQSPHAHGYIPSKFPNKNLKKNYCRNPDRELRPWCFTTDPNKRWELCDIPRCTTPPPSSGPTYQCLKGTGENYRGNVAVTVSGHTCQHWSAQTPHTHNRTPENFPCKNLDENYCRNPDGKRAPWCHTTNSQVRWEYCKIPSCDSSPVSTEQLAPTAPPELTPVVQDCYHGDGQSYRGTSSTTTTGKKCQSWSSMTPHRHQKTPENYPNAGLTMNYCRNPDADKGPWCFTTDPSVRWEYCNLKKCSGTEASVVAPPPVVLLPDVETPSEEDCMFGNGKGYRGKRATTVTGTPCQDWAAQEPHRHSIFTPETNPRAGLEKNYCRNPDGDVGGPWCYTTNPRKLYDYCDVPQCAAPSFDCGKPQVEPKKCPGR
Sequence of factor Xa (P00743 234-492 limits assumed): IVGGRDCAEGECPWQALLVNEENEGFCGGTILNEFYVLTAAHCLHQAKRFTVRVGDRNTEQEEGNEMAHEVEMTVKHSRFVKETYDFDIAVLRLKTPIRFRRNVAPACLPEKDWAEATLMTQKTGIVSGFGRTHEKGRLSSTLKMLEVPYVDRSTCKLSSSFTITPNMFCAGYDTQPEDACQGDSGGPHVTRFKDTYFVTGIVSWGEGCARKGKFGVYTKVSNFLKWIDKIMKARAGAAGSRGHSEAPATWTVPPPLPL
Sequence of factor Xa (P00743 41-180 partner limits assumed): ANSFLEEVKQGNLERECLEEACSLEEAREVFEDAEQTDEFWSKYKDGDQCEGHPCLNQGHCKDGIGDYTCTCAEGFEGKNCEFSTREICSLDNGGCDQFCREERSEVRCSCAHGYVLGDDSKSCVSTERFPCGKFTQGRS

| Structure (SMILES) | Ki (thrombin [1]) [µM] | Ki (plasmin) [µM] | Ki (factor Xa) [µM] | Ki (tPA) [µM] | Ki (glandular kallikrein) [µM] | Ki (trypsin) [µM] | Ki (factor XIIa) [µM] | Ki (plasma kallikrein) [µM] | Ki (thrombin [2]; Table 1) [µM] | Ki (plasmin; read-out: Ki, Plasmin, Table 1) [µM] | Ki (thrombin [2]) [µM] | Ki (factor XIIa; Ki, Factor XIIa, Table 1) [µM] |
| --- | --- | --- | --- | --- | --- | --- | --- | --- | --- | --- | --- | --- |
| CCS(=O)(=O)N1CCN(C(=O)C(Cc2cccc(C(=N)N)c2)NS(=O)(=O)c2ccc3ccccc3c2)CC1 (stereo not drawn) [AMD 2-Naph SO2 Et] |  |  | 24 | 820 | > 1000 |  | 212 | 58 | 0.044 | 3.5 |  |  |
| CS(=O)(=O)N1CCN(C(=O)C(Cc2cccc(C(=N)N)c2)NS(=O)(=O)c2ccc3ccccc3c2)CC1 (stereo not drawn) [AMD 2-Naph SO2 Me] |  |  | 22 | > 1000 | > 1000 |  | 86 | 77 |  | 12 |  |  |
| N=C(N)c1cccc(CC(NS(=O)(=O)c2ccc3ccccc3c2)C(=O)N2CCN(S(=O)(=O)c3ccccc3)CC2)c1 (stereo not drawn) [AMD 2-Naph SO2 -Ph] |  |  | 24 | > 1000 | > 1000 |  | 120 | 36 | 0.041 | 19 |  |  |
| CC(=O)N1CCN(C(=O)C(Cc2cccc(C(=N)N)c2)NS(=O)(=O)c2c(C)c(C)c3c(c2C)CCC(C)(C)O3)CC1 (stereo not drawn) [AMD Pmc Ac] | 0.074 | 11.5 | 150 | 670 | 760 | 0.6 | 420 | 44 |  |  |  |  |
| CCCCCC(=O)N1CCN(C(=O)C(Cc2cccc(C(=N)N)c2)NS(=O)(=O)c2ccc3ccccc3c2)CC1 (stereo not drawn) [AMD 2-Naph CO(CH2)4 CH3] |  |  | 19 | > 1000 | > 1000 |  | 270 | 23 | 6.5 | 2.6 |  |  |
| Cc1ccc(S(=O)(=O)N2CCN(C(=O)C(Cc3cccc(C(=N)N)c3)NS(=O)(=O)c3ccc4ccccc4c3)CC2)cc1 (stereo not drawn) [AMD 2-Naph SO2 -Tol] |  |  | 24 | > 1000 | > 1000 |  | > 1000 | 30 | 0.022 | 15 |  |  |
| Cc1c(C)c(S(=O)(=O)NC(Cc2cccc(C(=N)N)c2)C(=O)N2CCN(C(=O)N(C)C)CC2)c(C)c2c1OC(C)(C)CC2 (stereo not drawn) [AMD Pmc CO-N(Me)2] | 0.033 | 13 | 26 | > 1000 | > 1000 | 0.58 | > 1000 | 93 |  |  |  |  |
| Cc1c(C)c(S(=O)(=O)NC(Cc2cccc(C(=N)N)c2)C(=O)N2CCN(S(C)(=O)=O)CC2)c(C)c2c1OC(C)(C)CC2 (stereo not drawn) [AMD Pmc SO2 Me] |  |  | 75 | > 1000 | > 1000 |  | 140 | 140 | 0.0074 |  |  |  |
| COc1cc(C)c(S(=O)(=O)NC(Cc2cccc(C(=N)N)c2)C(=O)N2CCN(S(C)(=O)=O)CC2)c(C)c1C (stereo not drawn) [AMD Mtr SO2 Me] |  |  | 120 | > 1000 | > 1000 |  | 630 | 150 | 0.032 | 18 |  |  |
| CC(=O)N1CCN(C(=O)C(Cc2cccc(C(=N)N)c2)NS(=O)(=O)c2c(C(C)C)cc(C(C)C)cc2C(C)C)CC1 (stereo not drawn) [AMD TIPP Ac] | 0.098 |  | 4 | 17 | 200 | 0.22 | 47 | 7.3 |  | 3 |  |  |
| Cc1c(C)c(S(=O)(=O)NC(Cc2cccc(C(=N)N)c2)C(=O)N2CCN(CCO)CC2)c(C)c2c1OC(C)(C)CC2 (stereo not drawn) [AMD Pmc EtOH] | 0.059 | 48 | 91 | > 1000 | > 1000 | 3.3 | > 1000 | 180 |  |  |  |  |
| N=C(N)c1cccc(CC(NS(=O)(=O)c2ccc3ccccc3c2)C(=O)N2CCN(C=O)CC2)c1 (stereo not drawn) [AMD 2-Naph For] |  |  | 19 | > 1000 | 440 |  | 83 | 16 |  | 6.3 | 0.037 |  |
| N=C(N)c1cccc(CC(NS(=O)(=O)c2ccc3ccccc3c2)C(=O)N2CCN(CCO)CC2)c1 (stereo not drawn) [AMD 2-Naph EtOH] |  |  | 35 | > 1000 | > 1000 |  |  | 74 |  | 42 | 0.058 | > 1000 |
| N=C(N)c1cccc(CC(NS(=O)(=O)c2ccc3ccccc3c2)C(=O)N2CCN(S(=O)(=O)c3ccc4ccccc4c3)CC2)c1 (stereo not drawn) [AMD 2-Naph SO2-2-Naph] |  |  | 25 | > 1000 | > 1000 |  | 90 | 22 | 0.024 | 11 |  |  |

Now from value to compound, other results behind:

| Ki (thrombin [1]) [µM] | Ki (plasmin) [µM] | Ki (factor Xa) [µM] | Ki (tPA) [µM] | Ki (glandular kallikrein) [µM] | Ki (trypsin) [µM] | Ki (factor XIIa) [µM] | Ki (plasma kallikrein) [µM] | Structure (SMILES) | Ki (thrombin [2]; Table 1) [µM] | Ki (plasmin; read-out: Ki, Plasmin, Table 1) [µM] | Ki (thrombin [2]) [µM] | Ki (factor XIIa; Ki, Factor XIIa, Table 1) [µM] |
| --- | --- | --- | --- | --- | --- | --- | --- | --- | --- | --- | --- | --- |
| 1.8 | 3.3 | 14 | 320 | > 1000 | 0.061 | 100 | 19 | N=C(N)c1cccc(CC(NS(=O)(=O)c2ccc3ccccc3c2)C(=O)N2CCN(c3ncccn3)CC2)c1 (stereo not drawn) [AMD 2-Naph 2-Pym] |  |  |  |  |
| 0.075 | 31 | 13 | > 1000 | > 1000 | 0.59 | 690 | 1 | Cc1cc(C)c(S(=O)(=O)N2CCN(C(=O)C(Cc3cccc(C(=N)N)c3)NS(=O)(=O)c3ccc4ccccc4c3)CC2)c(C)c1 (stereo not drawn) [AMD 2-Naph SO2 -TMeP] |  |  |  |  |
| 0.031 | 13 | 1.7 | 84 | > 1000 | 0.033 | 7.2 | 11 | N=C(N)c1cccc(CC(NS(=O)(=O)c2ccc3c(c2)C(=O)c2ccccc2C3=O)C(=O)N2CCN(C=O)CC2)c1 (stereo not drawn) [AMD AC For] |  |  |  |  |
| 0.05 | 37 | 25 | > 1000 | > 1000 | 1.5 | 7.6 | 6.9 | COc1cc(C)c(S(=O)(=O)N2CCN(C(=O)C(Cc3cccc(C(=N)N)c3)NS(=O)(=O)c3ccc4ccccc4c3)CC2)c(C)c1C (stereo not drawn) [AMD 2-Naph SO2 -Mtr] |  |  |  |  |
| 24 | 26 | 130 | > 1000 | > 1000 | 0.53 | > 1000 | 94 | NCc1cccc(CC(NS(=O)(=O)c2ccc3ccccc3c2)C(=O)N2CCN(c3ccccn3)CC2)c1 (stereo not drawn) [Ame 2-Naph 2-Pyl] |  |  |  |  |
| 0.52 | 3.3 | 12 | > 1000 | > 1000 | 0.035 | 84 | 19 | N=C(N)c1cccc(CC(NS(=O)(=O)c2ccc3ccccc3c2)C(=O)N2CCN(c3ccccn3)CC2)c1 (stereo not drawn) [AMD 2-Naph 2-Pyl] |  |  |  |  |
| 1.3 | 6.2 | 16 | > 1000 | > 1000 | 0.066 | 74 | 16 | COCC(=O)N1CCN(C(=O)C(Cc2cccc(C(=N)N)c2)NS(=O)(=O)c2ccc3ccccc3c2)CC1 (stereo not drawn) [AMD 2-Naph COCH2 OMe] |  |  |  |  |
| 0.26 | 9.3 | 84 | 440 | > 1000 | 0.063 | > 1000 | 50 | CC(C)C(=O)N1CCN(C(=O)C(Cc2cccc(C(=N)N)c2)NS(=O)(=O)c2ccc3ccccc3c2)CC1 (stereo not drawn) [AMD 2-Naph COCH(Me)2] |  |  |  |  |
| 0.14 | 5.1 | 45 | 170 | > 1000 | 0.044 | 540 | 22 | N=C(N)c1cccc(CC(NS(=O)(=O)c2ccc3ccccc3c2)C(=O)N2CCN(C(=O)C3CC3)CC2)c1 (stereo not drawn) [AMD 2-Naph CO-cPr] |  |  |  |  |
| 2.5 | 7.6 |  | > 1000 | > 1000 | 0.026 | > 1000 | 56 | N=C(N)c1cccc(CC(NS(=O)(=O)c2ccc3ccccc3c2)C(=O)N2CCN(C(=O)C3CCC3)CC2)c1 (stereo not drawn) [AMD 2-Naph CO-cBu] |  |  |  |  |
| 0.011 |  |  | 120 | > 1000 | 0.073 | 42 | 3.6 | N=C(N)c1cccc(C[C@H](NS(=O)(=O)c2ccc3ccccc3c2)C(=O)N2CCN(C=O)CC2)c1 [AMD(L) 2-Naph For] |  |  |  |  |
| 2.5 | 2.7 | 16 | 170 | > 1000 | 0.081 | 72 | 19 | N=C(N)c1cccc(CC(NS(=O)(=O)c2ccc3ccccc3c2)C(=O)N2CCN(C(=O)Cc3cccs3)CC2)c1 (stereo not drawn) [AMD 2-Naph drawing 11] |  |  |  |  |
|  |  |  | > 1000 | > 1000 |  | 350 | 79 | N=C(N)c1cccc(CC(NS(=O)(=O)c2ccc3ccccc3c2)C(=O)N2CCN(C(=O)C3CCCCC3)CC2)c1 (stereo not drawn) [AMD 2-Naph CO-cHex] |  | 10.2 |  |  |
